Assays:
[1] = system: HL-60; test: Induction of apoptosis in human HL-60 cells assessed as necrotic cells at 0.6 uM incubated for 48 hrs by annexin V-FITC/PI satining based flow cytometry (reference value: 0.04 %); format: functional
[2] = system: HL-60; test: Induction of apoptosis in human HL-60 cells assessed as viable cells at 5 uM incubated for 48 hrs by annexin V-FITC/PI satining based flow cytometry (reference value: 94.7 %); format: functional; conditions: read-out: Activity
[3] = system: U-937; test: Induction of apoptosis in human U-937 cells assessed as late apoptotic cells at 1.2 uM incubated for 48 hrs by annexin V-FITC/PI satining based flow cytometry (reference value: 4.23 %); format: functional
[4] = system: U-937; test: Induction of apoptosis in human U-937 cells assessed as viable cells at 5 uM incubated for 48 hrs by annexin V-FITC/PI satining based flow cytometry (reference value: 93.7 %); format: functional; conditions: read-out: Activity
[5] = system: U-937; test: Induction of differentiation in human U-937 cells assessed as increase in CD11b positive cells at 2.5 uM incubated for 48 hrs by FITC staining based flow cytometry (reference value: […] %); format: functional
[6] = system: HL-60; test: Induction of apoptosis in human HL-60 cells assessed as viable cells at 0.6 uM incubated for 48 hrs by annexin V-FITC/PI satining based flow cytometry (reference value: 94.7 %); format: functional; conditions: read-out: Activity
[7] = system: HL-60; test: Induction of apoptosis in human HL-60 cells assessed as late apoptotic cells at 1.2 uM incubated for 48 hrs by annexin V-FITC/PI satining based flow cytometry (reference value: 2.83 %); format: functional
[8] = system: U-937; test: Induction of differentiation in human U-937 cells assessed as increase in CD11b positive cells at 0.6 uM incubated for 48 hrs by FITC staining based flow cytometry (reference value: […] %); format: functional
[9] = system: HL-60; test: Induction of apoptosis in human HL-60 cells assessed as necrotic cells at 5 uM incubated for 48 hrs by annexin V-FITC/PI satining based flow cytometry (reference value: 0.04 %); format: functional
[10] = system: HL-60; test: Induction of apoptosis in human HL-60 cells assessed as early apoptotic cells at 0.6 uM incubated for 48 hrs by annexin V-FITC/PI satining based flow cytometry (reference value: 2.4 %); format: functional
[11] = Cytotoxicity against human Kasumi 1 cells assessed as CD34positive CD38negative leukemic stem cell-like cells sub-population at 1 uM incubated for 24 hrs by APC/FITC satining based flow cytometry (reference value: 95.8 %); format: functional
[12] = system: U-937; test: Induction of apoptosis in human U-937 cells assessed as necrotic cells at 0.6 uM incubated for 48 hrs by annexin V-FITC/PI satining based flow cytometry (reference value: 0.102 %); format: functional
[13] = system: U-937; test: Induction of apoptosis in human U-937 cells assessed as late apoptotic cells at 0.2 uM incubated for 48 hrs by annexin V-FITC/PI satining based flow cytometry (reference value: 7.10 %); format: functional
[14] = system: U-937; test: Induction of apoptosis in human U-937 cells assessed as necrotic cells at 0.5 uM incubated for 48 hrs by annexin V-FITC/PI satining based flow cytometry (reference value: 1.96 %); format: functional
[15] = target: Histone deacetylase 3 (Homo sapiens, UniProt O15379); test: Inhibition of HDAC3 in human nuclear extract using Ac-Arg-Gly-Lys(Ac)-AMC as substrate at 1 uM incubated overnight by fluorescence based assay relative to control; format: subcellular; conditions: HeLa, Nucleus
Sequence of Histone deacetylase 3 (O15379 whole entry): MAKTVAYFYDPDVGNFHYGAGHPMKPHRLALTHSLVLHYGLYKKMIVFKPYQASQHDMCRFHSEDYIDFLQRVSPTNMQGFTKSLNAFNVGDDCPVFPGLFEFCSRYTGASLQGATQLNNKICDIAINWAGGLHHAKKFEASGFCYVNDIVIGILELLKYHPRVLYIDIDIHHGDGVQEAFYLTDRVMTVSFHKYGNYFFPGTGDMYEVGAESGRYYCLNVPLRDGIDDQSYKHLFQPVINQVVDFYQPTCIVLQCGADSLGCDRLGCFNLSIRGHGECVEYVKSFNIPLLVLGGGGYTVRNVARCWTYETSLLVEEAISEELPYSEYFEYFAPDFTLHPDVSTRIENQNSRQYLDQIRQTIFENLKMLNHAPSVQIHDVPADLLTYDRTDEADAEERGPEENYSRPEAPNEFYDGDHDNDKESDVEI

[16] = system: HL-60; test: Induction of apoptosis in human HL-60 cells assessed as necrotic cells at 1 uM incubated for 48 hrs by annexin V-FITC/PI satining based flow cytometry (reference value: 0.00 %); format: functional
[17] = system: HL-60; test: Induction of apoptosis in human HL-60 cells assessed as early apoptotic cells at 0.5 uM incubated for 48 hrs by annexin V-FITC/PI satining based flow cytometry (reference value: 1.24 %); format: functional
[18] = system: HL-60; test: Induction of apoptosis in human HL-60 cells assessed as viable cells at 2 uM incubated for 48 hrs by annexin V-FITC/PI satining based flow cytometry (reference value: 97.4 %); format: functional; conditions: read-out: Activity
[19] = target: Cyclin-dependent kinase 1/cyclin B1 (Homo sapiens) (UniProt P06493+P14635); test: Inhibition of CDK1/cyclinB1 (unknown origin) at 100 nM preincubated for 20 mins followed by [gamma-33P]ATP addition measured after 120 mins in presence of ATP by Hot-SpotSM kinase assay relative to control; format: protein-complex assay; conditions: time 140.0 min
Sequence of Cyclin-dependent kinase 1/cyclin B1 (Homo sapiens) (P06493 whole entry, looked up): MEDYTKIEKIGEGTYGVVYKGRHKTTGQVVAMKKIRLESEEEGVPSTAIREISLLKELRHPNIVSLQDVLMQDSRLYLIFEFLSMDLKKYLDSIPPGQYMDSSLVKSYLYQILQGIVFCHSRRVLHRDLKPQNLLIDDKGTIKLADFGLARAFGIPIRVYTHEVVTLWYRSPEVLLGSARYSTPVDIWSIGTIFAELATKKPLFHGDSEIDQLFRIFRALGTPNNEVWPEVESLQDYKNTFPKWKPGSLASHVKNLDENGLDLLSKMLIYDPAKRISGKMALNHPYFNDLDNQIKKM
Sequence of Cyclin-dependent kinase 1/cyclin B1 (Homo sapiens) (P14635 whole entry, looked up): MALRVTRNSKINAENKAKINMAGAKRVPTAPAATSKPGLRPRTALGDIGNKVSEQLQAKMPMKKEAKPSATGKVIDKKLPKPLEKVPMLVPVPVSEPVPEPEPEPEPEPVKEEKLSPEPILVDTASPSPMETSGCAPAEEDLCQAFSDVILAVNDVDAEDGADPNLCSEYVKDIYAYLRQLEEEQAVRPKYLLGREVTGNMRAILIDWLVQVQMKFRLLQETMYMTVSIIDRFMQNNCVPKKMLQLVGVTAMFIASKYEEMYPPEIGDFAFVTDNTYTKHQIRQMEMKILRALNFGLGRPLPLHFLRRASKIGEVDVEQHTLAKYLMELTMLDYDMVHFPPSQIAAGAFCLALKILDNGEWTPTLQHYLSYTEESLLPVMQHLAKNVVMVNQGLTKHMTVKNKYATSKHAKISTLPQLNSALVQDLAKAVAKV

[20] = Cmax in Sprague-Dawley rat at 5 mg/kg, iv measured upto 6 hrs by LC/MS-MS analysis; format: ADME, organism-based; set-up: time < 6 hrs, dose 5 mg/kg, route iv; conditions: in vivo
[21] = Cmax in Sprague-Dawley rat at 25 mg/kg, po measured upto 8 hrs by LC/MS-MS analysis; format: ADME, organism-based; set-up: time < 8 hrs, dose 25 mg/kg, route po; conditions: in vivo
[22] = system: HL-60; test: Induction of apoptosis in human HL-60 cells assessed as necrotic cells at 0.5 uM incubated for 48 hrs by annexin V-FITC/PI satining based flow cytometry (reference value: 0.00 %); format: functional
[23] = AUC in Sprague-Dawley rat at 5 mg/kg, iv measured upto 6 hrs by LC/MS-MS analysis; format: ADME, organism-based; set-up: dose 5 mg/kg, time < 6 hrs, route iv; conditions: in vivo
[24] = system: HL-60; test: Induction of apoptosis in human HL-60 cells assessed as necrotic cells at 0.2 uM incubated for 48 hrs by annexin V-FITC/PI satining based flow cytometry (reference value: 0.00 %); format: functional
[25] = system: HL-60; test: Induction of apoptosis in human HL-60 cells assessed as late apoptotic cells at 0.2 uM incubated for 48 hrs by annexin V-FITC/PI satining based flow cytometry (reference value: 1.33 %); format: functional
[26] = target: Protein deacetylase HDAC6 (Homo sapiens, UniProt Q9UBN7); test: Inhibition of recombinant human HDAC6 using HDAC substrate incubated for 30 mins by fluorescence based assay
Sequence of Protein deacetylase HDAC6 (Q9UBN7 whole entry): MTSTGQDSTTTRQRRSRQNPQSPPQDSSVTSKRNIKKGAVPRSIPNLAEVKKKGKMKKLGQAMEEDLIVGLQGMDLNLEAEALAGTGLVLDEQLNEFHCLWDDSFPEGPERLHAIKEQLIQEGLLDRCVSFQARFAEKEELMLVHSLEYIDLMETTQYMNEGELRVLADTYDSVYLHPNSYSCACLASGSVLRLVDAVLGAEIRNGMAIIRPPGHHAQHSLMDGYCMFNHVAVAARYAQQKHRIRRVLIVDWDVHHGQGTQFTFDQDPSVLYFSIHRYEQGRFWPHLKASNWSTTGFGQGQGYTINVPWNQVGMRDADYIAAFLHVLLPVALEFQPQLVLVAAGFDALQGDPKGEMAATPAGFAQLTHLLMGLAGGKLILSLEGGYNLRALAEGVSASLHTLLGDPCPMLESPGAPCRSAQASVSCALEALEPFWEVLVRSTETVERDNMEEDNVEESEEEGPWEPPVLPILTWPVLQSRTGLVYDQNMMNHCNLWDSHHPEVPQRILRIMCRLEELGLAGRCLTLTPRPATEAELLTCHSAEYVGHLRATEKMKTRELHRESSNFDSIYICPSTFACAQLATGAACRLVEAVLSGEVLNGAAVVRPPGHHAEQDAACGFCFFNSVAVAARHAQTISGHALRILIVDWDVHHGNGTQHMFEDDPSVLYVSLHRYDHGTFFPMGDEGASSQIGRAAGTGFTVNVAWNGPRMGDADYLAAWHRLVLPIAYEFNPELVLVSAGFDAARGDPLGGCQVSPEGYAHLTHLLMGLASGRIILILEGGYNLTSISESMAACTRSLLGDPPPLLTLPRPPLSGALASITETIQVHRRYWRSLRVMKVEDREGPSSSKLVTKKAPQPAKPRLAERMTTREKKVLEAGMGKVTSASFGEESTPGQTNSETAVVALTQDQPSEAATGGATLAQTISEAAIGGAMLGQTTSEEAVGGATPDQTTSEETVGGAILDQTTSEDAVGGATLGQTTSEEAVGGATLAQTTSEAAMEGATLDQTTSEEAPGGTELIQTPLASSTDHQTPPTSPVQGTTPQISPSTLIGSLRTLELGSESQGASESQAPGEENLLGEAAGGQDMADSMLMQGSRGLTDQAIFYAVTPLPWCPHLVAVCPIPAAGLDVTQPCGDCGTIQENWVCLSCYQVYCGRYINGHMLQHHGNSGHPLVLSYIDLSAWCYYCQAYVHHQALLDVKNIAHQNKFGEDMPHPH

[27] = Bioavailability in Sprague-Dawley rat at 25 mg/kg, po measured upto 8 hrs by LC/MS-MS analysis; format: ADME, organism-based; conditions: in vivo
[28] = system: HL-60; test: Induction of apoptosis in human HL-60 cells assessed as late apoptotic cells at 0.5 uM incubated for 48 hrs by annexin V-FITC/PI satining based flow cytometry (reference value: 1.33 %); format: functional
[29] = target: Cyclin-dependent kinase 9 (Homo sapiens, UniProt P50750); test: Inhibition of CDK9 (unknown origin) preincubated for 20 mins followed by [gamma-33P]ATP addition measured after 120 mins in presence of ATP by Hot-SpotSM kinase assay
Sequence of Cyclin-dependent kinase 9 (P50750 whole entry): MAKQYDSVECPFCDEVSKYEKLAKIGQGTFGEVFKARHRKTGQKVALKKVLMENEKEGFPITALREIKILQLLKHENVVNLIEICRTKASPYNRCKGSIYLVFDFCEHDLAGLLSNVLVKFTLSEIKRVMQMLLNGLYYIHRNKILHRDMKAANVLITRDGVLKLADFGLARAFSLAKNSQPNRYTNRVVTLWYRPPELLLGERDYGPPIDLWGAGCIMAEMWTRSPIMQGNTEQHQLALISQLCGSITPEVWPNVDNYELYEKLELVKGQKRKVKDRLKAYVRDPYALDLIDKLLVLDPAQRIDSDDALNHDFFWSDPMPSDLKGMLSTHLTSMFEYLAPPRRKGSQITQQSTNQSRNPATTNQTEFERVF

[30] = target: Cyclin-dependent kinase 5/CDK5 activator 1 (Homo sapiens) (UniProt Q00535+Q15078); test: Inhibition of CDK5/p25NCK (unknown origin) at 100 nM preincubated for 20 mins followed by [gamma-33P]ATP addition measured after 120 mins in presence of ATP by Hot-SpotSM kinase assay relative to control; format: protein-complex assay; conditions: time 140.0 min
Sequence of Cyclin-dependent kinase 5/CDK5 activator 1 (Homo sapiens) (Q00535 whole entry): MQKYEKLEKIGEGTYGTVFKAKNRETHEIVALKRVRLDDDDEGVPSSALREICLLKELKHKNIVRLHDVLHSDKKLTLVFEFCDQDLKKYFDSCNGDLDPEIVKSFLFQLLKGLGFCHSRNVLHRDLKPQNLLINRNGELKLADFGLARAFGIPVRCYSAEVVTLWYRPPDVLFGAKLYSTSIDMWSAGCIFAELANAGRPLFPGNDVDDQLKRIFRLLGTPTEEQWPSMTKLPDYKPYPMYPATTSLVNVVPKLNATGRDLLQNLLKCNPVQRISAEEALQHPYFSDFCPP
Sequence of Cyclin-dependent kinase 5/CDK5 activator 1 (Homo sapiens) (Q15078 99-307 partner limits assumed): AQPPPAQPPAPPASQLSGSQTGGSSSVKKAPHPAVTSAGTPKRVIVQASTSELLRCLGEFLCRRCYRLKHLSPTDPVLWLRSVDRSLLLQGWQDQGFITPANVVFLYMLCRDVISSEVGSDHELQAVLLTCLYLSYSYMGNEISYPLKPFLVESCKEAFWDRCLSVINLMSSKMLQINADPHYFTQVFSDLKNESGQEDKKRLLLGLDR

[31] = system: HL-60; test: Induction of differentiation in human HL-60 cells assessed as increase in CD11b positive cells at 0.5 uM incubated for 24 hrs by FITC staining based flow cytometry (reference value: 1.45 %); format: functional
[32] = system: HL-60; test: Induction of apoptosis in human HL-60 cells assessed as viable cells at 0.2 uM incubated for 48 hrs by annexin V-FITC/PI satining based flow cytometry (reference value: 97.4 %); format: functional; conditions: read-out: Activity
[33] = target: Histone deacetylase 7 (Homo sapiens, UniProt Q8WUI4); test: Inhibition of recombinant human HDAC7 using HDAC substrate incubated for 30 mins by fluorescence based assay
Sequence of Histone deacetylase 7 (Q8WUI4 whole entry): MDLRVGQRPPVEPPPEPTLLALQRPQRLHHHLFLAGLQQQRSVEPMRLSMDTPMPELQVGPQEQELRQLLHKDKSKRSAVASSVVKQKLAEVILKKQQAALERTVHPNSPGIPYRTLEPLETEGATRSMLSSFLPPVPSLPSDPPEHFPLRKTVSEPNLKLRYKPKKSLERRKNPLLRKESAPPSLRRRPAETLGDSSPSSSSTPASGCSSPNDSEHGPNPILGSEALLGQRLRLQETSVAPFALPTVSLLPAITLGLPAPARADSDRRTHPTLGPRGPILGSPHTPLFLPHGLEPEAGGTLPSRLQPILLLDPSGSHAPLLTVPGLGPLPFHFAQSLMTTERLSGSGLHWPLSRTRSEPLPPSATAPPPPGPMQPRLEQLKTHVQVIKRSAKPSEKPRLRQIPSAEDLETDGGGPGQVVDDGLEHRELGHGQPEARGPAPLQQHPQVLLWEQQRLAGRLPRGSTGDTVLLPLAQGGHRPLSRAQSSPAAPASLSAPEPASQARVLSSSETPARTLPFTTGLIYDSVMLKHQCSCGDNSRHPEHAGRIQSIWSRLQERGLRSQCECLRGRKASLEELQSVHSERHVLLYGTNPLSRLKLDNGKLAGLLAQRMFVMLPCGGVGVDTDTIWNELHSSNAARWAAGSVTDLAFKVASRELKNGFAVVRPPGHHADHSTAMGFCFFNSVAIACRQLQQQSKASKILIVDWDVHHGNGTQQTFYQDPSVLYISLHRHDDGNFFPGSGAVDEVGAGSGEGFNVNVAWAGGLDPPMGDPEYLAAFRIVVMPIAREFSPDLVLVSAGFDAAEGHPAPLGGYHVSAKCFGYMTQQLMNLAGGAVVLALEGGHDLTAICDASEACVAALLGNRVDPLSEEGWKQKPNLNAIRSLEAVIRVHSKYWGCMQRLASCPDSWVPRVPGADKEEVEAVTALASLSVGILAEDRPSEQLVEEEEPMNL

Nc1cc(F)ccc1NC(=O)c1ccc(CNC(=O)/C=C/c2cccnc2)cc1 [TUCIDINOSTAT]
Activity [1]: 0.07%
viability at 5 µM [2]: 18.1%
Activity [3]: 6.77%
viability at 5 µM [4]: 72.6%
Activity [5]: 5.59%
viability at 0.6 µM [6]: 95.1%
Activity [7]: 11.5%
Activity [8]: 4.06%
Activity [9]: 0.353%
Activity [10]: 2.52%
Activity [11]: 88.5%
Activity [12]: 0.072%

Nc1ccccc1NC(=O)c1ccc(NC(=O)c2n[nH]cc2NC(=O)c2c(Cl)cccc2Cl)cc1
Activity [13]: 8.15%
Activity [14]: 4.15%
inhibition [15]: 100%
Activity [16]: 0.445%
Activity [17]: 2.42%
viability at 2 µM [18]: 5.25%
inhibition [19]: 43.8%
Cmax [20]: 3640 ng/mL
Cmax [21]: 1430 ng/mL
Activity [22]: 0.01%
AUC [23]: 836 ng·h/mL
Activity [24]: 0.02%
Activity [25]: 1.97%
IC50 [26]: 723 nM
bioavailability [27]: 56.7%
Activity [28]: 3.16%
IC50 [29]: < 100 nM
inhibition [30]: 95.2%
Activity [31]: 6.09%
viability at 0.2 µM [32]: 96.4%
IC50 [33]: > 1000 nM

Reference: ChEMBL document CHEMBL5346903, “Discovery of novel and bioavailable histone deacetylases and cyclin-dependent kinases dual inhibitor to impair the stemness of leukemia cells” (Eur J Med Chem, 2023)
